From patent US20030027787A1, “Crosslinked polysaccharide, obtained by crosslinking with substituted polyethylene glycol, as superabsorbant” (GROUP LYSAC INC./LYSAC GROUP INC., priority 2000, published 2003)

Columns and labels:
[1] = tested on: Daphnia magna
[2] = tested on: microorganisms

For “Starch Maleate Half Ester, Crosslinked with 0.08 Eq. Triglycol Dichloride [Example 21]”, the “toxic product destroying the aquatic flora” value [1] was “no toxic product have been detected” and the toxicity for microorganisms [2] was “no toxicity”.
